Measured values from ChEMBL document CHEMBL1201862, “PubChem BioAssay data set” (2004).
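Five compound concentrations were applied to cells in 96-well plates for 48 hours; endpoints were derived by simple linear interpolation of the resulting dose-response curve. At the GI50, growth is halved.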 Active and inactive are the calls of the source. Cut-off read from the data, not from the text of the source: active = GI50 up to about 1.1 µM and inactive = higher.

Tests used:
Test in all cases: inhibition of tumour cell growth, NCI panel, 48 h
[1] = test system: 786-0
[2] = test system: SF-539
[3] = test system: RXF 393
[4] = test system: OVCAR-4
[5] = test system: HT-29
[6] = test system: SNB-19
[7] = test system: CCRF-CEM
[8] = test system: HCT-15
[9] = test system: SR
[10] = test system: CAKI-1
[11] = test system: DLD-1
[12] = test system: MOLT-4
[13] = test system: DMS-114
[14] = test system: HOP-62
[15] = test system: SNB-75
[16] = test system: NCI-H226
[17] = test system: NCI/ADR-RES
[18] = test system: MDA-MB-435
[19] = test system: MDA-MB-231
[20] = test system: DU-145

Structure (SMILES)	GI50 [1]	GI50 [2]	GI50 [3]	GI50 [4]	GI50 [5]	GI50 [6]	GI50 [7]	GI50 [8] [µM]	GI50 [9]	GI50 [10]	GI50 [11]	GI50 [12]	GI50 [13]	GI50 [14]	GI50 [15]	GI50 [16]	GI50 [17]	GI50 [18]	GI50 [19]	GI50 [20]
Nc1ccc(C(=O)N/C(=C\C=C\c2ccco2)c2nc3c(O)nc(S)nc3[nH]2)cc1	> 100 µM (inactive)	> 100 µM (inactive)	> 100 µM (inactive)	> 100 µM (inactive)	> 100 µM (inactive)	> 100 µM (inactive)	> 100 µM (inactive)	> 100	> 100 µM (inactive)	> 100 µM (inactive)	> 100 µM (inactive)	> 100 µM (inactive)								
CC#C[C@@]1(O)CCCCC1O (some centres not stated)	> 100 µM (inactive)	> 100 µM (inactive)	> 100 µM (inactive)	> 100 µM (inactive)	> 100 µM (inactive)	> 100 µM (inactive)	> 100 µM (inactive)	> 100				> 100 µM (inactive)	> 100 µM (inactive)	> 100 µM (inactive)	66.8 µM (inactive)	> 100 µM (inactive)				
Cc1ccc(SSc2ccc(C)cc2C(=O)O)c(C(=O)O)c1	> 100 µM (inactive)	> 100 µM (inactive)	> 100 µM (inactive)	> 100 µM (inactive)	> 100 µM (inactive)	> 100 µM (inactive)	> 100 µM (inactive)		> 100 µM (inactive)	> 100 µM (inactive)	> 100 µM (inactive)	> 100 µM (inactive)		> 100 µM (inactive)		> 100 µM (inactive)				
Cc1ccc2c(c1)C1(C)OC(CC(N)C1O)O2 (configuration not stated)	> 100 µM (inactive)	> 100 µM (inactive)	> 100 µM (inactive)		> 100 µM (inactive)	> 100 µM (inactive)	> 100 µM (inactive)	> 100			> 100 µM (inactive)	> 100 µM (inactive)	> 100 µM (inactive)	> 100 µM (inactive)	29.8 µM (inactive)	> 100 µM (inactive)				
O=C1Cc2c(-c3ccccc3)cc(-c3ccc(Cl)cc3)nc2-c2ccccc2N1	1.73 µM (inactive)	5.83 µM (inactive)	3.77 µM (inactive)	1.7 µM (inactive)	3.66 µM (inactive)	1.94 µM (inactive)	5.97 µM (inactive)	6.68	10 µM (inactive)	3.91 µM (inactive)		7.8 µM (inactive)		3.66 µM (inactive)	2.03 µM (inactive)	3.07 µM (inactive)	3.14 µM (inactive)	8.99 µM (inactive)	4.13 µM (inactive)	16.7 µM (inactive)
C/C(=N\N(C)C)C(CN(C)C)C(c1ccccc1)c1c(O)c2ccccc2oc1=O (configuration not stated)	> 100 µM (inactive)		> 100 µM (inactive)	> 100 µM (inactive)	> 100 µM (inactive)	> 100 µM (inactive)	> 100 µM (inactive)	> 100			> 100 µM (inactive)	> 100 µM (inactive)	> 100 µM (inactive)		30.3 µM (inactive)	> 100 µM (inactive)				
COC(=O)Nc1nc2cc(Oc3ccc4nc(NC(=O)OC)[nH]c4c3)ccc2[nH]1	0.435 µM (active)	0.381 µM (active)	0.74 µM (active)	1.77 µM (inactive)	1.14 µM (inactive)	1.29 µM (inactive)	0.371 µM (active)	1.28	0.252 µM (active)	2.32 µM (inactive)		1 µM (active)		1.56 µM (inactive)	0.701 µM (active)	0.925 µM (active)	4.33 µM (inactive)	0.115 µM (active)	1.68 µM (inactive)	0.791 µM (active)
Cn1c(=O)oc2cc(C(O)CN3CCN(Cc4ccc5c(c4)OCO5)CC3)ccc21 (configuration not stated)	> 100 µM (inactive)	> 100 µM (inactive)	> 100 µM (inactive)	> 100 µM (inactive)	> 100 µM (inactive)	> 100 µM (inactive)	> 100 µM (inactive)	> 100	> 100 µM (inactive)	> 100 µM (inactive)		> 100 µM (inactive)		> 100 µM (inactive)	47 µM (inactive)	> 100 µM (inactive)	> 100 µM (inactive)	> 100 µM (inactive)	> 100 µM (inactive)	> 100 µM (inactive)
C=C(C)C(=O)OC1C[C@H](COC(C)=O)C2CC=C(C)C2C2OC(=O)C(=C)[C@H]12 (some centres not stated)	2.98 µM (inactive)	4.59 µM (inactive)	3.81 µM (inactive)	1.74 µM (inactive)	4.25 µM (inactive)	16.9 µM (inactive)	1.64 µM (inactive)	1.91	2.06 µM (inactive)	2.81 µM (inactive)		1.72 µM (inactive)		13.3 µM (inactive)	10.8 µM (inactive)	17.3 µM (inactive)	2.18 µM (inactive)	3.33 µM (inactive)	4.3 µM (inactive)	6.19 µM (inactive)
CN(C)c1ccc(C(Cc2ccccc2)C2NC(=S)NC2=O)cc1 (configuration not stated)	> 100 µM (inactive)	47.8 µM (inactive)	> 100 µM (inactive)	28.4 µM (inactive)	> 83.6 µM (inactive)	> 100 µM (inactive)	> 100 µM (inactive)	> 100	2.17 µM (inactive)	> 100 µM (inactive)		61.1 µM (inactive)		> 100 µM (inactive)	> 100 µM (inactive)	> 100 µM (inactive)	> 100 µM (inactive)	> 75.7 µM (inactive)	> 100 µM (inactive)	> 100 µM (inactive)
O=C1Sc2ccc(Br)cc2C(=O)Sc2ccccc21	11 µM (inactive)	11.6 µM (inactive)	4.56 µM (inactive)	13.2 µM (inactive)	14.3 µM (inactive)	13.9 µM (inactive)	2.48 µM (inactive)	15.7	1.06 µM (active)	14.6 µM (inactive)		4.34 µM (inactive)		12.6 µM (inactive)	12.5 µM (inactive)	18.5 µM (inactive)	16 µM (inactive)	7.91 µM (inactive)	16.5 µM (inactive)	11.8 µM (inactive)
C/C=C(/C)C(=O)O[C@@H]1CCN2CC[C@H](COC(=O)/C(=C/C)CO)C12 (some centres not stated)	> 95.3 µM (inactive)	84.1 µM (inactive)	> 44.9 µM (inactive)	> 100 µM (inactive)	28.7 µM (inactive)	> 100 µM (inactive)	37.7 µM (inactive)	> 100	39.5 µM (inactive)	> 100 µM (inactive)		25.9 µM (inactive)		> 100 µM (inactive)	> 95.3 µM (inactive)	> 100 µM (inactive)	> 100 µM (inactive)	63.1 µM (inactive)	> 100 µM (inactive)	> 100 µM (inactive)
CC(=O)NC(CS/N=N/c1[nH]cnc1C(N)=O)C(=O)O (configuration not stated)	13 µM (inactive)	7.87 µM (inactive)	> 100 µM (inactive)	3.31 µM (inactive)	> 46.9 µM (inactive)	> 100 µM (inactive)	2.14 µM (inactive)	19.5	< 0.01 µM (active)	2.55 µM (inactive)		3.38 µM (inactive)		35.9 µM (inactive)	16.9 µM (inactive)	2.51 µM (inactive)	3.04 µM (inactive)	10.4 µM (inactive)	2.2 µM (inactive)	1.78 µM (inactive)
